According to PubChem BioAssay AID248 (DTP/NCI, 2004):
Where “and” joins values, the source holds several entries; their conditions need not be identical. Equal entries are not always repeated. Inconclusive results and toxic doses are left out. Cut-off read from the data, not from the text of the source: active = T/C of 150% or more; inactive = T/C below 125%.

System: L1210 leukemia ip in BDF1 mice, survival T/C
Assay: NCI In Vivo Anticancer Drug Screen. Data for tumor model L1210 Leukemia (intraperitoneal) in B6D2F1 (BDF1) mice
Settings: endpoint: mean survival time, higher = longer survival
Procedure, shortened: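 Transplanted-tumor mice were given test agent; controls received vehicle only. Survival readings from the two groups were divided (treated over control).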

[1] = dose: 100.0 mg/kg/injection, schedule: Q04DX003 (ip), vehicle: saline with Tween-80
[2] = dose: 200.0 mg/kg/injection, schedule: Q04DX003 (ip), vehicle: saline with Tween-80
[3] = dose: 400.0 mg/kg/injection, schedule: Q04DX003 (ip), vehicle: saline with Tween-80
[4] = dose: 100.0 mg/kg/injection, schedule: Q04DX003 (ip), vehicle: Klucel (hydroxypropylcellulose) (HPC)
[5] = dose: 200.0 mg/kg/injection, schedule: Q04DX003 (ip), vehicle: Klucel (hydroxypropylcellulose) (HPC)
[6] = dose: 400.0 mg/kg/injection, schedule: Q04DX003 (ip), vehicle: Klucel (hydroxypropylcellulose) (HPC)
[7] = dose: 100.0 mg/kg/injection, schedule: Q04DX003 (ip), vehicle: saline
[8] = dose: 200.0 mg/kg/injection, schedule: Q04DX003 (ip), vehicle: saline
[9] = dose: 100.0 mg/kg/injection, schedule: Q01DX009 (ip), vehicle: Klucel (hydroxypropylcellulose) (HPC)
[10] = dose: 200.0 mg/kg/injection, schedule: Q01DX009 (ip), vehicle: Klucel (hydroxypropylcellulose) (HPC)

Measured: T/C

CC1(C)C(=O)C(C)(C)C1=Nc1ccccc1
inactive: dose: 100.0 mg/kg/injection, schedule: Q01DX009 (ip), vehicle: saline with Tween-80 95 % of control | [1] 108 % of control | dose: 200.0 mg/kg/injection, schedule: Q01DX009 (ip), vehicle: saline with Tween-80 94 % of control | [2] 106 % of control | dose: 400.0 mg/kg/injection, schedule: Q01DX009 (ip), vehicle: saline with Tween-80 97 % of control | [3] 106 % of control

CCOC(=O)Nc1cc2c(c(NC(=O)OCC)n1)N=C(C)CN2 (tested in a mixture with another compound)
inactive: dose: 100.0 mg/kg/injection, schedule: Q01DX001 (ip), vehicle: saline with Tween-80 95 % of control | dose: 200.0 mg/kg/injection, schedule: Q01DX001 (ip), vehicle: saline with Tween-80 95 % of control | dose: 200.0 mg/kg/injection, schedule: Q04DX002 (ip), vehicle: saline with Tween-80 95 % of control | dose: 400.0 mg/kg/injection, schedule: Q01DX001 (ip), vehicle: saline with Tween-80 95 % of control | dose: 400.0 mg/kg/injection, schedule: Q04DX002 (ip), vehicle: saline with Tween-80 103 % of control | dose: 600.0 mg/kg/injection, schedule: Q04DX002 (ip), vehicle: saline with Tween-80 103 % of control

O=C(Sc1c[nH]c(=O)[nH]c1=O)c1ccc(N(CCCl)CCCl)cc1
inactive: dose: 25.0 mg/kg/injection, schedule: Q04DX003 (ip), vehicle: Klucel (hydroxypropylcellulose) (HPC) 96 % of control | dose: 50.0 mg/kg/injection, schedule: Q04DX003 (ip), vehicle: Klucel (hydroxypropylcellulose) (HPC) 102 % of control | [4] 94 % of control | [5] 100 % of control | [6] 105 % of control

CC(=O)CC(=O)NCCNC(=O)CC(C)=O
inactive: [7] 101 % of control | [8] 100 % of control | dose: 400.0 mg/kg/injection, schedule: Q04DX003 (ip), vehicle: saline 100 % of control

O=C(/C=C\c1cccc([N+](=O)[O-])c1)c1ccc(F)cc1
inactive: dose: 100.0 mg/kg/injection, schedule: Q04DX002 (ip), vehicle: Klucel (hydroxypropylcellulose) (HPC) 100 % of control | dose: 200.0 mg/kg/injection, schedule: Q04DX002 (ip), vehicle: Klucel (hydroxypropylcellulose) (HPC) 94 % of control | dose: 400.0 mg/kg/injection, schedule: Q04DX002 (ip), vehicle: Klucel (hydroxypropylcellulose) (HPC) 98 % of control

Nc1cc([N+](=O)[O-])cc([N+](=O)[O-])c1Cl
inactive: dose: 100.0 mg/kg/injection, schedule: Q01DX001 (ip), vehicle: Klucel (hydroxypropylcellulose) (HPC) 93 % of control | dose: 200.0 mg/kg/injection, schedule: Q01DX001 (ip), vehicle: Klucel (hydroxypropylcellulose) (HPC) 96 % of control | dose: 400.0 mg/kg/injection, schedule: Q01DX001 (ip), vehicle: Klucel (hydroxypropylcellulose) (HPC) 101 % of control

CC(=O)OCC(=O)[C@@]1(O)[C@H](C)C[C@H]2[C@@H]3C=C(C)C4=Cc5c(cnn5-c5ccc(F)cc5)C[C@]4(C)[C@H]3[C@@H](O)C[C@@]21C
inactive: dose: 0.62 mg/kg/injection, schedule: Q01DX015 (sc), vehicle: steriod suspending solution 120 % of control | dose: 1.25 mg/kg/injection, schedule: Q01DX015 (sc), vehicle: steriod suspending solution 117 % of control | dose: 2.5 mg/kg/injection, schedule: Q01DX015 (sc), vehicle: steriod suspending solution 102 % of control | dose: 5.0 mg/kg/injection, schedule: Q01DX015 (sc), vehicle: steriod suspending solution 117 % of control and 123 % of control | dose: 6.25 mg/kg/injection, schedule: Q01DX009 (sc), vehicle: steriod suspending solution 100 % of control | dose: 10.0 mg/kg/injection, schedule: Q01DX015 (sc), vehicle: steriod suspending solution 111 % of control | dose: 20.0 mg/kg/injection, schedule: Q01DX015 (sc), vehicle: steriod suspending solution 103 % of control | dose: 40.0 mg/kg/injection, schedule: Q01DX015 (sc), vehicle: steriod suspending solution 101 % of control | dose: 50.0 mg/kg/injection, schedule: Q04DX003 (sc), vehicle: steriod suspending solution 110 % of control | dose: 100.0 mg/kg/injection, schedule: Q01DX001 (ip), vehicle: steriod suspending solution 98 % of control | dose: 100.0 mg/kg/injection, schedule: Q04DX003 (sc), vehicle: steriod suspending solution 108 % of control | dose: 160.0 mg/kg/injection, schedule: Q01DX015 (sc), vehicle: steriod suspending solution 91 % of control | dose: 200.0 mg/kg/injection, schedule: Q01DX001 (ip), vehicle: steriod suspending solution 91 % of control | dose: 200.0 mg/kg/injection, schedule: Q04DX003 (sc), vehicle: steriod suspending solution 103 % of control

CC1OC(c2ccccc2)OC2COC(c3ccccc3)OC12 (stereo not drawn)
inactive: [1] 102 % of control | [2] 96 % of control | [3] 96 % of control

c1ccc(C[N+](Cc2ccccc2)=C2CCCCC2)cc1
inactive: dose: 50.0 mg/kg/injection, schedule: Q01DX009 (ip), vehicle: saline 92 % of control | dose: 100.0 mg/kg/injection, schedule: Q01DX009 (ip), vehicle: saline 100 % of control | [7] 98 % of control | [8] 103 % of control

Cc1ccc(NC(=O)c2ccccc2)cc1Cl
inactive: [9] 98 % of control | [4] 106 % of control | [10] 95 % of control | [5] 101 % of control | dose: 400.0 mg/kg/injection, schedule: Q01DX009 (ip), vehicle: Klucel (hydroxypropylcellulose) (HPC) 96 % of control | [6] 97 % of control

Clc1ccc(/C=N/N2CCN(/N=C/c3ccc(Cl)cc3)CC2)cc1
inactive: dose: 100.0 mg/kg/injection, schedule: Q01DX001 (ip), vehicle: carboxymethylcellulose (CMC) 96 % of control | dose: 200.0 mg/kg/injection, schedule: Q01DX001 (ip), vehicle: carboxymethylcellulose (CMC) 96 % of control | dose: 400.0 mg/kg/injection, schedule: Q01DX001 (ip), vehicle: carboxymethylcellulose (CMC) 96 % of control

C1CCC2C[N-]CCC2C1.C1CCC2C[N-]CCC2C1.C1CCC2C[N-]CCC2C1.C1CCC2C[N-]CCC2C1.[Cl][Rh][Cl] (stereo not drawn)
inactive: dose: 0.5 mg/kg/injection, schedule: Q01DX009 (ip), vehicle: Klucel (hydroxypropylcellulose) (HPC) 101 % of control | dose: 1.0 mg/kg/injection, schedule: Q01DX009 (ip), vehicle: Klucel (hydroxypropylcellulose) (HPC) 108 % of control | dose: 2.0 mg/kg/injection, schedule: Q01DX009 (ip), vehicle: Klucel (hydroxypropylcellulose) (HPC) 110 % of control | dose: 2.0 mg/kg/injection, schedule: Q01DX009 (ip), vehicle: citric acid 92 % of control | dose: 3.12 mg/kg/injection, schedule: Q01DX009 (ip), vehicle: saline with Tween-80 105 % of control | dose: 3.12 mg/kg/injection, schedule: Q04DX003 (ip), vehicle: saline with Tween-80 105 % of control | dose: 4.0 mg/kg/injection, schedule: Q01DX009 (ip), vehicle: Klucel (hydroxypropylcellulose) (HPC) 103 % of control | dose: 6.25 mg/kg/injection, schedule: Q04DX003 (ip), vehicle: saline with Tween-80 108 % of control

CCCNC(=O)Oc1ccccc1C(=O)NCO
inactive: dose: 100.0 mg/kg/injection, schedule: Q01DX009 (ip), vehicle: other 101 % of control | dose: 200.0 mg/kg/injection, schedule: Q01DX009 (ip), vehicle: other 96 % of control

CC(C)C(C#N)(CCCCN1CCCC1)c1cccc2ccccc12 (stereo not drawn)
inactive: [1] 95 % of control

COC(=O)/C=C/c1ccc(OC)cc1
inactive: dose: 50.0 mg/kg/injection, schedule: Q01DX009 (ip), vehicle: Klucel (hydroxypropylcellulose) (HPC) 103 % of control | [9] 102 % of control | [4] 96 % of control | [10] 103 % of control | [5] 100 % of control | [6] 88 % of control
